The target in one experiment is rat EP4 receptor (Rattus norvegicus (Rat), UniProt P43114). In words: cAMP level assay for EP4 agonist (STEP plate format). In kind it is cell-based. The following applies: cAMP readout, EP4; read-out: STEP cell functional assay EC50 cAMP/EP4. The source says: (§1) Functional Cellular Assays (STEP Plate Format)
Procedure of cAMP Assay for EP2/EP4 Agonist
(§2) 3. […] In addition each concentration had triplicates.
6. Aspirate the supernatant.
On the technique in general: cAMP levels reflect the balance of adenylyl cyclase and phosphodiesterase activity.

For a further experiment, the target named is rat EP2 receptor (Rattus norvegicus (Rat), UniProt Q62928). Nature of the experiment: SEAP activity assay for EP2 agonist (STEP plate format). In kind it is cell-based. The following applies: read-out: STEP cell functional assay EC50 SEAP/EP2.
Sequence of rat EP2 receptor (Q62928 whole entry): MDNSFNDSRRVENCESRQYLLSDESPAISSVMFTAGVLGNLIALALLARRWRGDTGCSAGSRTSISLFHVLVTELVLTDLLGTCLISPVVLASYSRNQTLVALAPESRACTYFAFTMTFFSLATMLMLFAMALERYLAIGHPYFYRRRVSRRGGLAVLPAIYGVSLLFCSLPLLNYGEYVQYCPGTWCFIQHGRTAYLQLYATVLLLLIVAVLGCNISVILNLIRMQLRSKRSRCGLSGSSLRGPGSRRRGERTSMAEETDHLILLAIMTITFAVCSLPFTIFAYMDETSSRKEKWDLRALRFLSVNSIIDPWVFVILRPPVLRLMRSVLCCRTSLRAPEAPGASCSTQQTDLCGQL
Description: as §1
Procedure of SEAP Activity Assay for EP2/EP4 Agonist
as §2
4. […] Cover the plate with the lid.

Read-outs that look alike come from different tables or passages of the source.

Sequence of rat EP4 receptor (P43114 whole entry): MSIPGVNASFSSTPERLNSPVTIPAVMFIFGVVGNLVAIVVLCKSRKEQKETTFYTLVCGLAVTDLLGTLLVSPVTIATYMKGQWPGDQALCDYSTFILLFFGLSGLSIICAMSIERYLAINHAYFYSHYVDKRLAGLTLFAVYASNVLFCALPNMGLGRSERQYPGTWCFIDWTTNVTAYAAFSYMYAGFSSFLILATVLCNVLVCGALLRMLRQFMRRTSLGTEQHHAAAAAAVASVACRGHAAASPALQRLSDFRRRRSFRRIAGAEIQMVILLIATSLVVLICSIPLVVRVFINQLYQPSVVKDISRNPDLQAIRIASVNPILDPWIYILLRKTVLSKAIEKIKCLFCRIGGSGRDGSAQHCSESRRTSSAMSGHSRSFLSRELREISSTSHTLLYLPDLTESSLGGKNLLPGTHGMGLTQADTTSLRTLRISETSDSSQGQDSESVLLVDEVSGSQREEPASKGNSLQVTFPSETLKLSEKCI

Regarding `C[C@@H](CCCc1ccccc1)[C@@H](O)/C=C/[C@H]1CC(F)(F)C(=O)N1CCCc1ccc(C(=O)O)s1` [Example 28D, 5-(3-((R)-3,3-difluoro-5-((3R,4S,E)-3-hydroxy-4-methyl-7-phenylhept-1-en-1-yl)-2-oxopyrrolidin-1-yl)propyl)thiophene-2-carboxylic acid], the EC50 at rat EP4 receptor was found to be 5.68 nM.
Take `COC(=O)c1ccc(CCCN2C(=O)C(F)(F)C[C@@H]2/C=C/[C@H](O)[C@H](C)CCCc2ccccc2)s1` [Example 28F, methyl 5-(3-((R)-3,3-difluoro-5-((3R,4R,E)-3-hydroxy-4-methyl-7-phenylhept-1-en-1-yl)-2-oxopyrrolidin-1-yl)propyl)thiphene-2-carboxylate]: the EC50 on rat EP4 receptor is more than 1000 nM.
Regarding `C[C@H](CCCc1ccccc1)[C@H](O)/C=C/[C@H]1CC(F)(F)C(=O)N1CCCc1ccc(C(=O)O)s1` [Example 28G, 5-(3-((R)-3,3-difluoro-5-((3S,4R,E)-3-hydroxy-4-methyl-7-phenylhept-1-en-1-yl)-2-oxopyrrolidin-1-yl)propyl)thiphene-2-carboxylic acid], the EC50 on rat EP2 receptor (SEAP readout, EP2) turned out to be 65 nM; at rat EP4 receptor, 0.0162 nM.
Turning to `C[C@H](CCCc1ccccc1)[C@@H](O)/C=C/[C@H]1CC(F)(F)C(=O)N1CCCc1ccc(C(=O)O)s1` [Example 28H, 5-(3-((R)-3,3-difluoro-5-((3R,4R,E)-3-hydroxy-4-methyl-7-phenylhept-1-en-1-yl)-2-oxopyrrolidin-1-yl)propyl)thiphene-2-carboxylic acid], the EC50 on rat EP4 receptor came to 3.15 nM.
Still for that read-out and setting: the result for `C[C@@H](c1ccccc1)[C@H](O)/C=C/[C@H]1CC(F)(F)C(=O)N1CCCc1ccc(C(=O)O)s1` [Example 35C, 5-(3-((R)-3,3-difluoro-5-((3R,4S,E)-3-hydroxy-4-phenylpent-1-en-1-yl)-2-oxopyrrolidin-1-yl)propyl)thiophene-2-carboxylic acid] reads 62 nM; that for `COC(=O)c1ccc(CCCN2C(=O)C(F)(F)C[C@@H]2/C=C/[C@@H](O)[C@@H](C)Cc2ccccc2)s1` [Example 36A, methyl 5-(3-((R)-3,3-difluoro-5-((3S,4S,E)-3-hydroxy-4-methyl-5-phenylpent-1-en-1-yl)-2-oxopyrrolidin-1-yl)propyl)thiophene-2-carboxylate], 5.02 nM; that for `COC(=O)c1ccc(CCCN2C(=O)C(F)(F)C[C@@H]2/C=C/[C@H](O)[C@@H](C)Cc2ccccc2)s1` [Example 36B, methyl 5-(3-((R)-3,3-difluoro-5-((3R,4S,E)-3-hydroxy-4-methyl-5-phenylpent-1-en-1-yl)-2-oxopyrrolidin-1-yl)propyl)thiophene-2-carboxylate], more than 1000 nM.
Take `C[C@@H](Cc1ccccc1)[C@H](O)/C=C/[C@H]1CC(F)(F)C(=O)N1CCCc1ccc(C(=O)O)s1` [Example 36C, 5-(3-((R)-3,3-difluoro-5-((3S,4S,E)-3-hydroxy-4-methyl-5-phenylpent-1-en-1-yl)-2-oxopyrrolidin-1-yl)propyl)thiophene-2-carboxylic acid]: the EC50 stood at 1000 nM at rat EP2 receptor (SEAP readout, EP2) and 0.038 nM on rat EP4 receptor.
Take `COC(=O)c1ccc(CCCN2C(=O)C(F)(F)C[C@@H]2/C=C/[C@@H](O)[C@@H](C)CCc2ccccc2)s1` [Example 37A, methyl 5-(3-((R)-3,3-difluoro-5-((3S,4S,E)-3-hydroxy-4-methyl-6-phenylhex-1-en-1-yl)-2-oxopyrrolidin-1-yl)propyl)thiophene-2-carboxylate]: the EC50 at rat EP4 receptor came out at 8.09 nM.
On the same count and under the same terms, the result for `COC(=O)c1ccc(CCCN2C(=O)C(F)(F)C[C@@H]2/C=C/[C@@H](O)[C@@H](C)CCCCc2ccccc2)s1` [Example 38A, methyl 5-(3-((R)-3,3-difluoro-5-((3S,4S,E)-3-hydroxy-4-methyl-8-phenyloct-1-en-1-yl)-2-oxopyrrolidin-1-yl)propyl)thiophene-2-carboxylate] reads more than 1000 nM; that for `COC(=O)c1ccc(CCCN2C(=O)C(F)(F)C[C@@H]2/C=C/[C@H](O)[C@@H](C)CCCCc2ccccc2)s1` [Example 38B, methyl 5-(3-((R)-3,3-difluoro-5-((3R,4S,E)-3-hydroxy-4-methyl-8-phenyloct-1-en-1-yl)-2-oxopyrrolidin-1-yl)propyl)thiophene-2-carboxylate], more than 1000 nM.
Take `C[C@@H](CCCCc1ccccc1)[C@H](O)/C=C/[C@H]1CC(F)(F)C(=O)N1CCCc1ccc(C(=O)O)s1` [Example 38C, 5-(3-((R)-3,3-difluoro-5-((3S,4S,E)-3-hydroxy-4-methyl-8-phenyloct-1-en-1-yl)-2-oxopyrrolidin-1-yl)propyl)thiophene-2-carboxylic acid]: the EC50 at rat EP2 receptor (SEAP readout, EP2) came out at 157 nM.
Turning to `C[C@@H](CCCCc1ccccc1)[C@@H](O)/C=C/[C@H]1CC(F)(F)C(=O)N1CCCc1ccc(C(=O)O)s1` [Example 38D, 5-(3-((R)-3,3-difluoro-5-((3R,4S,E)-3-hydroxy-4-methyl-8-phenyloct-1-en-1-yl)-2-oxopyrrolidin-1-yl)propyl)thiophene-2-carboxylic acid], the EC50 at rat EP2 receptor (SEAP readout, EP2) is more than 10000 nM; on rat EP4 receptor, 0.37 nM.
With `COC(=O)c1ccc(CCCN2C(=O)C(F)(F)C[C@@H]2/C=C/[C@@H](O)[C@@H](C)CCCCCc2ccccc2)s1` [Example 39A, methyl 5-(3-((R)-3,3-difluoro-5-((3S,4S,E)-3-hydroxy-4-methyl-9-phenylnon-1-en-1-yl)-2-oxopyrrolidin-1-yl)propyl)thiophene-2-carboxylate], on rat EP4 receptor, the EC50 was more than 1000 nM.
For `COC(=O)c1ccc(CCCN2C(=O)C(F)(F)C[C@@H]2/C=C/[C@H](O)[C@@H](C)CCCCCc2ccccc2)s1` [Example 39B, methyl 5-(3-((R)-3,3-difluoro-5-((3R,4S,E)-3-hydroxy-4-methyl-9-phenylnon-1-en-1-yl)-2-oxopyrrolidin-1-yl)propyl)thiophene-2-carboxylate], the EC50 at rat EP4 receptor is more than 1000 nM.
Take `C[C@@H](CCCCCc1ccccc1)[C@H](O)/C=C/[C@H]1CC(F)(F)C(=O)N1CCCc1ccc(C(=O)O)s1` [Example 39C, 5-(3-((R)-3,3-difluoro-5-((3S,4S,E)-3-hydroxy-4-methyl-9-phenylnon-1-en-1-yl)-2-oxopyrrolidin-1-yl)propyl)thiophene-2-carboxylic acid]: the EC50 on rat EP2 receptor (SEAP readout, EP2) is 1020 nM.
Regarding `C[C@@H](CCCCCc1ccccc1)[C@@H](O)/C=C/[C@H]1CC(F)(F)C(=O)N1CCCc1ccc(C(=O)O)s1` [Example 39D, 5-(3-((R)-3,3-difluoro-5-((3R,4S,E)-3-hydroxy-4-methyl-9-phenylnon-1-en-1-yl)-2-oxopyrrolidin-1-yl)propyl)thiophene-2-carboxylic acid], the EC50 on rat EP2 receptor (SEAP readout, EP2) was found to be 79000 nM; on rat EP4 receptor, 0.059 nM.
On to `CCCCC[C@H](O)/C=C/[C@H]1[C@H](O)CC(=O)[C@@H]1CCCCCCC(=O)O` [PGE1, reference compound], for which the EC50 at rat EP2 receptor (SEAP luminescence, 6-8 hours of stimulation) is 16.5 nM.

(Values after patent US9180116B2, “Difluorolactam compounds as EP4 receptor-selective agonists for use in the treatment of EP4-mediated diseases and conditions” (Cayman Chemical Company, Inc., priority 2012, dated 2015).)
